Columns and labels:
[1] = test system: SARS-CoV-2 Omicron variant KP.3.1.1; experiment: microbe, parasite or virus in culture; format: cell-based; conditions: for mean log10(PFU/ml): KP.3.1.1; for IC50: Severe acute respiratory syndrome coronavirus 2, Calu-3, 48 h, read-out: IC50, live SARS-CoV-2 infection KP.3.1.1
[2] = test system: SARS-CoV-2 Delta variant AY.1; experiment: microbe, parasite or virus in culture; format: cell-based; conditions: for mean log10(PFU/ml): AY.1; for IC50: Severe acute respiratory syndrome coronavirus 2, Calu-3, 48 h, read-out: IC50, live SARS-CoV-2 infection AY.1 (Delta)

With `CC(C)(C)NC(=O)N1CCN(C(=O)N2C(=O)C(CCCNC(=N)N)C2C(=O)O)CC1` (stereo not drawn) [BMS-262084] as the compound, how does the “mean log10(PFU/ml)” value ([1]; concentration 5 nM) read?
The value was 7.893 log10(PFU/ml).

What about the “mean log10(PFU/ml)” value ([1]; concentration 50 nM) of the same compound?
Its value is 4.129 log10(PFU/ml).

And the “mean log10(PFU/ml)” value ([1]; concentration 500 nM)?
Its value is 1.9 log10(PFU/ml).

And the “mean log10(PFU/ml)” value ([1]; concentration 5000 nM)?
The value was 1.699 log10(PFU/ml).

What about the “mean log10(PFU/ml)” value ([1]; concentration 50000 nM) of the same compound?
Its value is 1.498 log10(PFU/ml).

And the IC50 [1]?
Its IC50 is 8.03 nM.

What about the “mean log10(PFU/ml)” value ([2]; concentration 5 nM) of the same compound?
Its value is 7.781 log10(PFU/ml).

What about the “mean log10(PFU/ml)” value ([2]; concentration 50 nM) of the same compound?
Its value is 5.891 log10(PFU/ml).

What about the “mean log10(PFU/ml)” value ([2]; concentration 500 nM) of the same compound?
Its value is 3.176 log10(PFU/ml).

What about the “mean log10(PFU/ml)” value ([2]; concentration 5000 nM) of the same compound?
Its value is 2.572 log10(PFU/ml).

And the “mean log10(PFU/ml)” value ([2]; concentration 50000 nM)?
Its value is 2.538 log10(PFU/ml).

What about the IC50 [2] of the same compound?
Its IC50 is 8.66 nM.

`CN(C)C(=O)COC(=O)Cc1ccc(OC(=O)c2ccc(NC(=N)N)cc2)cc1` [camostat] was tested. Which “mean log10(PFU/ml)” value ([1]; concentration 5 nM) did it give?
The value was 7.955 log10(PFU/ml).

And the “mean log10(PFU/ml)” value ([1]; concentration 50 nM)?
Its value is 6.207 log10(PFU/ml).

And the “mean log10(PFU/ml)” value ([1]; concentration 500 nM)?
Its value is 5.0218 log10(PFU/ml).

What about the “mean log10(PFU/ml)” value ([1]; concentration 5000 nM) of the same compound?
The value was 1.958 log10(PFU/ml).

What about the “mean log10(PFU/ml)” value ([1]; concentration 50000 nM) of the same compound?
Its value is 1.699 log10(PFU/ml).

What about the IC50 [1] of the same compound?
Its IC50 is 38.3 nM.

And the “mean log10(PFU/ml)” value ([2]; concentration 5 nM)?
Its value is 7.732 log10(PFU/ml).

And the “mean log10(PFU/ml)” value ([2]; concentration 50 nM)?
Its value is 7.059 log10(PFU/ml).

What about the “mean log10(PFU/ml)” value ([2]; concentration 500 nM) of the same compound?
The value was 6.615 log10(PFU/ml).

And the “mean log10(PFU/ml)” value ([2]; concentration 5000 nM)?
Its value is 4.492 log10(PFU/ml).

And the “mean log10(PFU/ml)” value ([2]; concentration 50000 nM)?
The value was 3.6181 log10(PFU/ml).

What about the IC50 [2] of the same compound?
The IC50 was 22.1 nM.

Source: article PMC12307812 (Nature Communications, 2025)
